Experimental data reported in US5929075A, “Apolipoprotein-B synthesis inhibitors” (Janssen Pharmaceutica, N.V., priority 1994, dated 1999).

test system: apolipoprotein B; test: Apolipoprotein B (apo B) inhibition test in cultured human liver cells (Hepg2-cells); format: cell-based; conditions: concentration of the drug needed to reduce apoB secretion to 50% of the control, overnight at 37° C.
Description: Cultured human liver cells (Hepg2-cells), which synthesize and secrete low-density lipoproteins, were incubated overnight at 37° C. in a liquid medium containing radioactively labelled leucine. Thus radioactively labelled leucine was incorporated into the apolipoprotein B. The liquid medium was decanted and the apolipoprotein B was isolated by means of a double immunoprecipitation, i.e. first an apolipoprotein B-specific antibody (antibody1) was added to the liquid medium and subsequently a second antibody (antibody2) was added which binds specifically to the apoB-antibody1 -complex. The thus formed apoB-antibody1 -antibody2 complex precipitated and was isolated by centrifuge. Quantification of the amount of apolipoprotein B synthesized during the night resulted from measuring the radioactivity of the isolated complex. To measure the inhibiting activity of the test compound, that test compound was added to the liquid medium at different concentrations and the concentration of apolipoprotein B synthesized in the presence of a test compound (concentration apoB(after)) was compared to the concentration of apolipoprotein B which was synthesized in the absence of the test compound (concentration apoB(control)). For each experiment the inhibition of apolipoprotein-B formation was expressed as
% inhibition=100×(1-concentration of apoB(after)/concentration
When more experiments were carried out for the same concentration, the median value of the inhibition calculated for these experiments was calculated. IC50 -values (concentration of the drug needed to reduce apoB secretion to 50% of the control) were also computed.

Compound	IC50
CC(C)n1cnn(-c2ccc(N3CCN(c4ccc(OC[C@@H]5CO[C@@](CSc6nncn6C)(c6ccc(Cl)cc6)O5)cc4)CC3)cc2)c1=O (relative stereo) [Compound 1]	92 nM
CC(C)n1cnn(-c2ccc(N3CCN(c4ccc(OC[C@@H]5CO[C@@](CSc6nncn6C)(c6ccc(F)cc6)O5)cc4)CC3)cc2)c1=O (relative stereo) [Compound 4]	260 nM
CC(C)Cn1cnn(-c2ccc(N3CCN(c4ccc(OC[C@@H]5CO[C@@](CSc6nncn6C)(c6ccc(F)cc6)O5)cc4)CC3)cc2)c1=O (relative stereo) [Compound 5]	200 nM
Cn1cnnc1SC[C@@]1(c2ccc(Cl)cc2)OC[C@@H](COc2ccc(N3CCN(c4ccc(-n5ncn(C6CCCC6)c5=O)cc4)CC3)cc2)O1 (relative stereo) [Compound 6]	120 nM
CCCn1cnn(-c2ccc(N3CCN(c4ccc(OC[C@@H]5CO[C@@](CSc6nncn6C)(c6ccc(Cl)cc6)O5)cc4)CC3)cc2)c1=O (relative stereo) [Compound 8]	130 nM
CCC(C)n1cnn(-c2ccc(N3CCN(c4ccc(OC[C@@H]5CO[C@@](CSc6nncn6C)(c6ccc(F)cc6)O5)cc4)CC3)cc2)c1=O (relative stereo) [Compound 9]	110 nM
CCC(CC)n1cnn(-c2ccc(N3CCN(c4ccc(OC[C@@H]5CO[C@@](CSc6nncn6C)(c6ccc(F)cc6)O5)cc4)CC3)cc2)c1=O (relative stereo) [Compound 12]	190 nM
Cn1cnnc1SC[C@@]1(c2ccc(F)cc2F)OC[C@@H](COc2ccc(N3CCN(c4ccc(-n5ncn(C6CCCC6)c5=O)cc4)CC3)cc2)O1 (relative stereo) [Compound 13]	510 nM
CC(C)Cn1ncn(-c2ccc(N3CCN(c4ccc(OC[C@@H]5CO[C@@](CSc6nncn6C)(c6ccc(Cl)cc6)O5)cc4)CC3)cc2)c1=O (relative stereo) [Compound 23]	140 nM
CCC(C)n1ncn(-c2ccc(N3CCN(c4ccc(OC[C@@H]5CO[C@@](CSc6nncn6C)(c6ccc(F)cc6)O5)cc4)CC3)cc2)c1=O (relative stereo) [Compound 28]	97 nM
CCCCCn1ncn(-c2ccc(N3CCN(c4ccc(OC[C@@H]5CO[C@@](CSc6nncn6C)(c6ccc(Cl)cc6)O5)cc4)CC3)cc2)c1=O (relative stereo) [Compound 32]	180 nM
Cn1cnnc1SC[C@@]1(c2ccc(F)cc2F)OC[C@@H](COc2ccc(N3CCN(c4ccc(-n5cnn(C6CCCC6)c5=O)cc4)CC3)cc2)O1 (relative stereo) [Compound 37]	230 nM
CCC(CC)n1ncn(-c2ccc(N3CCN(c4ccc(OC[C@@H]5CO[C@@](CSc6nncn6C)(c6ccc(F)cc6)O5)cc4)CC3)cc2)c1=O (relative stereo) [Compound 43]	110 nM
CCC(C)n1ncn(-c2ccc(N3CCN(c4ccc(OC[C@@H]5CO[C@@](CSc6nnc(C(F)(F)F)[nH]6)(c6ccc(Cl)cc6)O5)cc4)CC3)cc2)c1=O (relative stereo) [Compound 49]	850 nM
CCC(C)n1ncn(-c2ccc(N3CCN(c4ccc(OC[C@@H]5CO[C@@](CSc6nnc(C(F)(F)F)n6C)(c6ccc(Cl)cc6)O5)cc4)CC3)cc2)c1=O (relative stereo) [Compound 50]	260 nM
CCC(C)n1ncn(-c2ccc(N3CCN(c4ccc(OC[C@H]5CO[C@](CSc6nncn6C(C)C)(c6ccc(Cl)cc6)O5)cc4)CC3)cc2)c1=O (relative stereo) [Compound 52]	250 nM
CCC(C)n1ncn(-c2ccc(N3CCN(c4ccc(OC[C@H]5CO[C@](CSc6nnc(C)n6C)(c6ccc(Cl)cc6)O5)cc4)CC3)cc2)c1=O (relative stereo) [Compound 56]	230 nM
CCC(C)n1ncn(-c2ccc(N3CCN(c4ccc(OC[C@H]5CO[C@](CSc6nnc(O)n6C)(c6ccc(Cl)cc6)O5)cc4)CC3)cc2)c1=O (relative stereo) [Compound 58]	310 nM

More lines, in order of falling IC50, values ahead:

IC50	Compound
91 nM	CC(C)Cn1cnn(-c2ccc(N3CCN(c4ccc(OC[C@@H]5CO[C@@](CSc6nncn6C)(c6ccc(Cl)cc6)O5)cc4)CC3)cc2)c1=O (relative stereo) [Compound 3]
91 nM	CC(C)n1ncn(-c2ccc(N3CCN(c4ccc(OC[C@@H]5CO[C@@](CSc6nncn6C)(c6ccc(Cl)cc6)O5)cc4)CC3)cc2)c1=O (relative stereo) [Compound 33]
84 nM	CCC(C)n1ncn(-c2ccc(N3CCN(c4ccc(OC[C@H]5CO[C@](CSc6nncn6CC)(c6ccc(Cl)cc6)O5)cc4)CC3)cc2)c1=O (relative stereo) [Compound 53]
79 nM	CCC(CC)n1cnn(-c2ccc(N3CCN(c4ccc(OC[C@@H]5CO[C@@](CSc6nncn6C)(c6ccc(Cl)cc6)O5)cc4)CC3)cc2)c1=O (relative stereo) [Compound 7]
79 nM	CCC(C)n1ncn(-c2ccc(N3CCN(c4ccc(OC[C@H]5CO[C@](CSc6nncn6CC(C)C)(c6ccc(Cl)cc6)O5)cc4)CC3)cc2)c1=O (relative stereo) [Compound 54]
78 nM	CCCn1cnnc1SC[C@]1(c2ccc(Cl)cc2)OC[C@H](COc2ccc(N3CCN(c4ccc(-n5cnn(C(C)CC)c5=O)cc4)CC3)cc2)O1 (relative stereo) [Compound 55]
77 nM	Cn1cnnc1SC[C@@]1(c2ccc(F)cc2)OC[C@@H](COc2ccc(N3CCN(c4ccc(-n5cnn(C6CCCC6)c5=O)cc4)CC3)cc2)O1 (relative stereo) [Compound 35]
71 nM	CCC(C)n1ncn(-c2ccc(N3CCN(c4ccc(OC[C@@H]5CO[C@@](CSc6nncn6C)(c6ccc(Cl)cc6)O5)cc4)CC3)cc2)c1=O (relative stereo) [Compound 22, (±)-cis-4-[4-[4-[4-[[2-(4-chlorophenyl)-2-[[(4-methyl-4H-1,2,4-triazol-3-yl)thio]methyl]-1,3-dioxolan-4-yl]methoxy]phenyl]-1-piperazinyl]-phenyl]-2,4-dihydro-2-(1-methylpropyl)-3H-1,2,4-triazol-3-one]
58 nM	Cn1cnnc1SC[C@@]1(c2ccc(Cl)cc2)OC[C@@H](COc2ccc(N3CCN(c4ccc(-n5cnn(C6CCCC6)c5=O)cc4)CC3)cc2)O1 (relative stereo) [Compound 24]
51 nM	CCC(CC)n1ncn(-c2ccc(N3CCN(c4ccc(OC[C@@H]5CO[C@@](CSc6nncn6C)(c6ccc(Cl)cc6)O5)cc4)CC3)cc2)c1=O (relative stereo) [Compound 44]
48 nM	CCCCn1cnn(-c2ccc(N3CCN(c4ccc(OC[C@@H]5CO[C@@](CSc6nncn6C)(c6ccc(Cl)cc6)O5)cc4)CC3)cc2)c1=O (relative stereo) [Compound 15]
47 nM	CCC(C)n1cnn(-c2ccc(N3CCN(c4ccc(OC[C@@H]5CO[C@@](CSc6nncn6C)(c6ccc(Cl)cc6)O5)cc4)CC3)cc2)c1=O (relative stereo) [Compound 2]
47 nM	CCCCn1cnnc1SC[C@@]1(c2ccc(Cl)cc2)OC[C@@H](COc2ccc(N3CCN(c4ccc(-n5cnn(C(C)CC)c5=O)cc4)CC3)cc2)O1 (relative stereo) [Compound 51]
46 nM	CCC(C)n1ncn(-c2ccc(N3CCN(c4ccc(OC[C@H]5CO[C@](CSc6ncnn6C)(c6ccc(Cl)cc6)O5)cc4)CC3)cc2)c1=O (relative stereo) [Compound 60]
41 nM	CCCCCn1cnn(-c2ccc(N3CCN(c4ccc(OC[C@@H]5CO[C@@](CSc6nncn6C)(c6ccc(Cl)cc6)O5)cc4)CC3)cc2)c1=O (relative stereo) [Compound 18]
